Source: the supplement of paper PMC10307832

What was measured:
Experiment in all cases: relative viability (nuclei count vs DMSO), 5 days (fraction); higher = more cells survive
[1] = compound: C[C@@H](N)c1ccc(C(=O)Nc2ccnc3[nH]ccc23)cc1 + CS(=O)(=O)N1CCN(Cc2cc3nc(-c4cccc5[nH]ncc45)nc(N4CCOCC4)c3s2)CC1 [Pictilisib] (partner 1 µM)
Summary of the method: (§1)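 Nuclei were stained with Hoechst during a one-step fixation (final 0.05% Triton X-100, 1% formaldehyde, 1 ug/ml Hoechst) carried out 5 days after dosing, then counted on 4× images. The cells, lung cancer lines in 1536-well plates, had been dosed by pin tool the day after seeding with one drug alone or a fixed anchor-drug dose plus five library-drug doses (not always all listed) in √10 steps. Relative viability is the nuclei count in treated wells divided by that in vehicle wells, and each value is the median of duplicate plates.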

[2] = compound: C[C@@H](N)c1ccc(C(=O)Nc2ccnc3[nH]ccc23)cc1 + COc1cc2c(Oc3ccc(NC(=O)C4(C(=O)Nc5ccc(F)cc5)CC4)cc3F)ccnc2cc1OCCCN1CCOCC1 [Foretinib] (partner 0.25 µM)
Summary of the method: as §1

Tanzisertib + Alpelisib = compound: O[C@H]1CC[C@H](Nc2ncc3nc(Nc4c(F)cc(F)cc4F)n([C@H]4CCOC4)c3n2)CC1 [Tanzisertib] + Cc1nc(NC(=O)N2CCC[C@H]2C(N)=O)sc1-c1ccnc(C(C)(C)C(F)(F)F)c1 [Alpelisib] (partner 2 µM)
Summary of the method: as §1

[3] = compound: C1CNCCC1C2=CC(=NN2)C3=CC=NC=C3 + Nc1nc2[nH]cc(CCc3ccc(C(=O)N[C@@H](CCC(=O)O)C(=O)O)cc3)c2c(=O)[nH]1 [Pemetrexed] (partner 0.2 µM)
Summary of the method: as §1

| Cell Line | relative viability ([1]; first compound 0.04 µM) | relative viability ([1]; first compound 0.1265 µM) | relative viability ([1]; first compound 0.4 µM) | relative viability ([1]; first compound 4 µM) | relative viability ([2]; first compound 0.04 µM) | relative viability ([2]; first compound 0.1265 µM) | relative viability ([2]; first compound 0.4 µM) | relative viability ([2]; first compound 4 µM) | relative viability (Tanzisertib + Alpelisib; first compound 0.08 µM) | relative viability (Tanzisertib + Alpelisib; first compound 0.253 µM) | relative viability (Tanzisertib + Alpelisib; first compound 0.8 µM) | relative viability (Tanzisertib + Alpelisib; first compound 2.53 µM) | relative viability (Tanzisertib + Alpelisib; first compound 8 µM) | relative viability ([3]; first compound 0.08 µM) | relative viability ([3]; first compound 0.8 µM) | relative viability ([3]; first compound 2.53 µM) | relative viability ([3]; first compound 8 µM) | relative viability ([1]; first compound 1.265 µM) | relative viability ([2]; first compound 1.265 µM) |
| --- | --- | --- | --- | --- | --- | --- | --- | --- | --- | --- | --- | --- | --- | --- | --- | --- | --- | --- | --- |
| NCI-H322M | 0.681 | 0.536 | 0.561 | 0.731 | 1.29 | 1.19 | 1.29 | 1.39 | 0.935 | 0.648 | 0.774 | 0.669 | 0.776 | 0.636 | 0.589 | 0.641 | 0.667 | – | – |
| NCI-H358 | 0.339 | 0.31 | 0.33 | 0.326 | 0.675 | 0.688 | 0.651 | 0.566 | 0.902 | 0.762 | 0.922 | 0.717 | 0.635 | 0.181 | 0.176 | 0.178 | 0.157 | 0.289 | 0.662 |
| NCI-H441 | 0.549 | 0.569 | 0.553 | 0.458 | 0.988 | 1.05 | 1.02 | 0.843 | 0.925 | 0.69 | 0.674 | 0.713 | 0.635 | 0.264 | 0.251 | 0.247 | 0.243 | 0.4 | – |
| NCI-H460 | 0.467 | 0.252 | 0.489 | 0.372 | 0.984 | 1.01 | 1 | 1 | 0.716 | 0.441 | 0.477 | 0.356 | 0.286 | 0.0816 | 0.066 | 0.0652 | 0.0683 | 0.0436 | 0.986 |
| NCI-H520 | 0.33 | 0.301 | 0.29 | 0.504 | 0.862 | 0.707 | 0.817 | 0.95 | 0.958 | 0.886 | 1.07 | 0.937 | 0.927 | 0.652 | 0.743 | 0.637 | 0.517 | 0.396 | 1.28 |
| NCI-H596 | 0.435 | 0.44 | 0.408 | 0.319 | 1.07 | 0.82 | 0.772 | 0.761 | 0.539 | 0.448 | 0.421 | 0.407 | 0.471 | 0.483 | 0.476 | 0.525 | 0.478 | 0.416 | – |
| NCI-H647 | 0.301 | 0.394 | 0.451 | 0.42 | 1.22 | 1.06 | 1.25 | 0.895 | 1.12 | 1.31 | 1.16 | 1.26 | 1.08 | 0.176 | 0.146 | 0.174 | 0.189 | – | 1.21 |
| NCI-H650 | 0.81 | 0.753 | 0.704 | 0.708 | – | 0.991 | 1.03 | 0.712 | 1.1 | 1.19 | 1.18 | 1.21 | 1.18 | 0.956 | 0.967 | 0.951 | 1.02 | – | 0.899 |
| NCI-H661 | 0.433 | 0.54 | 0.454 | 0.509 | 0.947 | 1.09 | 1.03 | 0.855 | 0.84 | 0.716 | 0.561 | 0.527 | 0.412 | 0.967 | 0.942 | 0.939 | 0.891 | 0.351 | 0.923 |
| NCI-H838 | 0.402 | 0.421 | 0.335 | 0.317 | 0.965 | 0.957 | 0.919 | 0.409 | 1.02 | 1 | 0.92 | 0.965 | 0.973 | 0.24 | 0.259 | 0.248 | 0.284 | 0.31 | 0.634 |
| NCI-H1355 | 0.338 | 0.429 | 0.555 | 0.351 | 1.01 | 1.02 | 1.09 | 0.924 | 0.838 | 0.871 | 0.886 | 0.864 | 0.881 | 1.09 | 1.08 | 1.07 | 1.02 | – | 1.1 |
| NCI-H1395 | 0.566 | 0.626 | 0.655 | 0.627 | 1.07 | 1.14 | 1.06 | 0.909 | 1.11 | 1.14 | 1.04 | 1.04 | 0.983 | 0.782 | 0.803 | 1.03 | 0.861 | – | 0.995 |
| NCI-H1437 | 0.468 | 0.419 | 0.407 | 0.488 | 1.29 | 1.35 | 1.35 | 1.35 | 0.998 | 1 | 0.964 | 0.958 | 0.722 | 0.334 | 0.312 | 0.363 | 0.303 | 0.396 | 1.37 |
| NCI-H1563 | 0.691 | 0.661 | 0.638 | 0.688 | 0.974 | 0.986 | 0.876 | 0.914 | 0.92 | 0.935 | 0.875 | 0.862 | 0.977 | 0.818 | 0.662 | 0.961 | 0.904 | 0.578 | 0.923 |
| NCI-H1651 | 0.663 | 0.646 | 0.684 | 0.799 | 0.883 | 0.908 | 0.882 | 0.782 | 1.17 | 0.934 | 1.01 | 0.988 | 0.817 | 0.592 | 0.597 | 0.608 | 0.575 | 0.808 | 0.987 |
| NCI-H1666 | 0.527 | 0.407 | 0.498 | 0.728 | 0.859 | 1.01 | 1.14 | 1.08 | 0.935 | 1.01 | 1.06 | 1.1 | 1.01 | 0.788 | 0.804 | 0.873 | 0.909 | 0.476 | 1.25 |
| NCI-H1734 | 0.475 | 0.474 | 0.461 | 0.353 | 0.996 | 0.95 | 0.867 | 0.683 | 0.724 | 0.704 | 0.673 | 0.702 | 0.642 | 0.407 | 0.431 | 0.426 | 0.433 | – | 0.855 |
